According to patent US10414808B2 (priority 2012, dated 2019):
pIC50: −log10 of the molar value. Where two headings read alike, the source gives them in different places.

Key:
[1] = system: mouse model of inflammatory pain (100% CFA); settings: in vivo
[2] = system: rat model of nociceptive pain; settings: in vivo
[3] = system: rat model of monoarthritis induced by 50% intraplantar CFA; settings: in vivo
[4] = system: mouse spared nerve injury model of neuropathic pain; settings: in vivo
[5] = mouse, in vivo
mice = settings: mouse, in vivo
[6] = system: mouse model of CFA-induced inflammatory pain; settings: in vivo
[7] = system: rodent models of acute and inflammatory pain; settings: in vivo; cited from earlier work
in vivo = settings: mouse, sc
Nav1.7 = Nav1.7 (Homo sapiens, UniProt Q15858, W1161R); assay: cell-based
Nav1.7, sequence (Q15858 whole entry W1161R, looked up): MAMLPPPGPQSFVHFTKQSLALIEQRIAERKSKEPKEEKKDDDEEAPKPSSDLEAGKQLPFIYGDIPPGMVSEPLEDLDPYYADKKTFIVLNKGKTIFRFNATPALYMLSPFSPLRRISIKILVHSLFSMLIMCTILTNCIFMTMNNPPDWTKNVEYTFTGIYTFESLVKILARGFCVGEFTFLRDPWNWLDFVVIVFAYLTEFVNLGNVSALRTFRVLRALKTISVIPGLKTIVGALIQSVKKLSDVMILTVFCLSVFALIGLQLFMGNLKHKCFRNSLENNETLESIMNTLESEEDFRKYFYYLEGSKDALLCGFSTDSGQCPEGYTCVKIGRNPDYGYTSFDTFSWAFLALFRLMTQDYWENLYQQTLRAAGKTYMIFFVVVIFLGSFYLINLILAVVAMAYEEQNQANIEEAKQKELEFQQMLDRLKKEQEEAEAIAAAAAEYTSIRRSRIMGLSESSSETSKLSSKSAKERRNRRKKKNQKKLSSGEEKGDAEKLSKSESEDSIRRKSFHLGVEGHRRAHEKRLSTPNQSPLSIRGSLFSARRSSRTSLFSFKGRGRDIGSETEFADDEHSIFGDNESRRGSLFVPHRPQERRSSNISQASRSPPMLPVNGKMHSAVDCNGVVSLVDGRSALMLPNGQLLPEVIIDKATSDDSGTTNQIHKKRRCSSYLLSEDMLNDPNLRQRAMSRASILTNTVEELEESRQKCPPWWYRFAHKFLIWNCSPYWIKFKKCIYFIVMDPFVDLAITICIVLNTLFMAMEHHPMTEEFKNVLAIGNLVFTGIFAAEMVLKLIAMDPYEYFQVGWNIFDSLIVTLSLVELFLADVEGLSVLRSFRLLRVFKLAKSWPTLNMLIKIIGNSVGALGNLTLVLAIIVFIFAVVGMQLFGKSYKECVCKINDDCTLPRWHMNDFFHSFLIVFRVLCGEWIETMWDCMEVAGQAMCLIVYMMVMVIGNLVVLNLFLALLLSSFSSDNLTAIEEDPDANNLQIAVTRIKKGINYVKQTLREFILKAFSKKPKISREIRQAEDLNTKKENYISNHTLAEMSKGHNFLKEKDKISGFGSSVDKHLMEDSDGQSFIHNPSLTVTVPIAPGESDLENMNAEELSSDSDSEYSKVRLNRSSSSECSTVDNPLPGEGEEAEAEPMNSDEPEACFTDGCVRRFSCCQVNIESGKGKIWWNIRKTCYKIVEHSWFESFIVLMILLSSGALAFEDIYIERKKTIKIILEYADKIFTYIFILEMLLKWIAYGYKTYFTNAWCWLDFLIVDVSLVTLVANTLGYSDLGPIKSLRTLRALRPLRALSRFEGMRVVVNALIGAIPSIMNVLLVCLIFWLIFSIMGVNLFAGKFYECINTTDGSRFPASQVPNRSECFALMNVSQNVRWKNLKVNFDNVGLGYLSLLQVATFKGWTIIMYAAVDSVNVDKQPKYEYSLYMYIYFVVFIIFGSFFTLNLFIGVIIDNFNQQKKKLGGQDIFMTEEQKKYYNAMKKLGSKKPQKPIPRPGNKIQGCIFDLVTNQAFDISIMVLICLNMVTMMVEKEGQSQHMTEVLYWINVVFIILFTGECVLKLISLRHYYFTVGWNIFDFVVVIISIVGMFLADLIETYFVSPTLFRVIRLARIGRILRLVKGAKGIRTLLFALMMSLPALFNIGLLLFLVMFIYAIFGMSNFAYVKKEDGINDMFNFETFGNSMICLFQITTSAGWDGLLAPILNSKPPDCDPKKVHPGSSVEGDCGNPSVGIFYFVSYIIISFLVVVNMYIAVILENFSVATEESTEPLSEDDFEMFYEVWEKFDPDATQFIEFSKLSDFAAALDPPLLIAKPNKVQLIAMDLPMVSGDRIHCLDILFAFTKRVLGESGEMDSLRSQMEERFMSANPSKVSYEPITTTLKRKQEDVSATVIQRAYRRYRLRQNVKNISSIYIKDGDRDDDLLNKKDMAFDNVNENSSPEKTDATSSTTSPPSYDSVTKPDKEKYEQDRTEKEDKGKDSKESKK

Nav1.2 = Nav1.2 (Homo sapiens, UniProt Q99250); assay: cell-based
Nav1.2, sequence (Q99250 whole entry, looked up): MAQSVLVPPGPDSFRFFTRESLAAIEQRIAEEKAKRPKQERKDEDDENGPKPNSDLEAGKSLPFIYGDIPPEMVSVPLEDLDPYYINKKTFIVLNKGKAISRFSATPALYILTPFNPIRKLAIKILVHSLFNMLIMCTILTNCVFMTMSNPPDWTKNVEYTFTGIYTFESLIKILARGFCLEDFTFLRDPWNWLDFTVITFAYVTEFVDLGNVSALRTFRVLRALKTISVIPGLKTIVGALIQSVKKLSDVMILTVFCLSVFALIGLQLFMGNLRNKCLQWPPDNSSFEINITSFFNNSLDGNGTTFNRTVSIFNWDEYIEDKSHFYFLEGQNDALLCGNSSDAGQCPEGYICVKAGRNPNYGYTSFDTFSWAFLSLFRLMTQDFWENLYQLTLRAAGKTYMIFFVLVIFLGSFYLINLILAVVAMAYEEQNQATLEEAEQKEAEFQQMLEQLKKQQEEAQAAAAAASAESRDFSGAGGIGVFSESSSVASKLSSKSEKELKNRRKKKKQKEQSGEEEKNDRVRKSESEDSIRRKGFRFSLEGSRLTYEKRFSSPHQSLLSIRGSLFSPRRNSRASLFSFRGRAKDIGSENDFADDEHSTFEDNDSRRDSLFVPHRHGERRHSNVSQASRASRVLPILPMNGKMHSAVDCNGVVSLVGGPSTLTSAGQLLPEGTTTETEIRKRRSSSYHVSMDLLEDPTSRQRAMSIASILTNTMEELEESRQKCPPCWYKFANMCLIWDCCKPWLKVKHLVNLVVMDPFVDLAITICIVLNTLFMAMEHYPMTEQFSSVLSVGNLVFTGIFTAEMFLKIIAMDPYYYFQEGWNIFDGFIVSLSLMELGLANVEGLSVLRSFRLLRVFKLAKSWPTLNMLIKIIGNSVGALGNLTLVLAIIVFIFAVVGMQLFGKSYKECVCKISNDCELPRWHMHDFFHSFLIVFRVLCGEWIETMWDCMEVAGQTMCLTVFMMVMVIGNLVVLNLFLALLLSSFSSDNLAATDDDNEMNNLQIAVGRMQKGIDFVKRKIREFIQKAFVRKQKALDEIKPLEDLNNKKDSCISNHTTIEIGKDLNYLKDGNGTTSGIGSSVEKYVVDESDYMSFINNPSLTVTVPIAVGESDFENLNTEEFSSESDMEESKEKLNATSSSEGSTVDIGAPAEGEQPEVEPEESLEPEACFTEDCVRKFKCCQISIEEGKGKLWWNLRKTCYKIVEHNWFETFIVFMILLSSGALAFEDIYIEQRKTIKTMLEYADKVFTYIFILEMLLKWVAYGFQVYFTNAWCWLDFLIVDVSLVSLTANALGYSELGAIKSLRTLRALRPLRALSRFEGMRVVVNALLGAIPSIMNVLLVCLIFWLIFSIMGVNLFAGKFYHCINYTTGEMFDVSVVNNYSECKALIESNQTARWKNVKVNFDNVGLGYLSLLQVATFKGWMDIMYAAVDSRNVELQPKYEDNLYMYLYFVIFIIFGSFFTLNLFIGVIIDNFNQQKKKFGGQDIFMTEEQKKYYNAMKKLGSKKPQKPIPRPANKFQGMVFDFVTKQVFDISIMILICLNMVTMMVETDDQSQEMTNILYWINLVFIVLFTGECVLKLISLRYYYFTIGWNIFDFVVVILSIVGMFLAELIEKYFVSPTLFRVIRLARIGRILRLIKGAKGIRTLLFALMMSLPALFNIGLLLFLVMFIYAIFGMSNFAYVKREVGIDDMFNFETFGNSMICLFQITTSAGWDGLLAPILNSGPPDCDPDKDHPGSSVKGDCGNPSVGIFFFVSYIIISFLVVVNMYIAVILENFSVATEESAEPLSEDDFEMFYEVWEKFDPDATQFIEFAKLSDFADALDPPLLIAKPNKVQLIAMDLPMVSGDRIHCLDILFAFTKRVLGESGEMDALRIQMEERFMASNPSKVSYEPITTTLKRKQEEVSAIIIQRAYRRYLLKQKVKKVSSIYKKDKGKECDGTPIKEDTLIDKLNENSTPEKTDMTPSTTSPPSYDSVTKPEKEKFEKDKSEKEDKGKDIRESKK

hNav1.7 channel = hNav1.7 channel (Homo sapiens, UniProt Q15858, W1161R); type: cell-based

Compound: NCC1(CC(=O)O)CCCCC1 [gabapentin]
- CFA-induced tactile allodynia ([1]; po, 150 mg/kg): reduced tactile allodynia albeit to a lesser extent than ProTx-II

Compound: CSCC[C@@H]1NC(=O)CNC(=O)[C@H](CCC(=O)O)NC(=O)[C@@H]2CSSC[C@H](NC(=O)[C@@H](N)Cc3ccc(O)cc3)C(=O)N[C@@H](CCC(N)=O)C(=O)N[C@@H](CCCCN)C(=O)N[C@@H](Cc3c[nH]c4ccccc34)C(=O)N[C@@H](CCSC)C(=O)N[C@@H](Cc3c[nH]c4ccccc34)C(=O)N[C@@H]([C@@H](C)O)C(=O)N[C@H]3CSSC[C@H](NC(=O)[C@H](C(C)C)NC1=O)C(=O)N[C@@H](CCCNC(=N)N)C(=O)N[C@@H](CC(C)C)C(=O)N[C@@H](Cc1c[nH]c4ccccc14)C(=O)N[C@H](C(=O)N[C@@H](CCCCN)C(=O)N[C@@H](CCCCN)C(=O)N[C@@H](CCCCN)C(=O)N[C@@H](CC(C)C)C(=O)N[C@@H](Cc1c[nH]c4ccccc14)C(=O)O)CSSC[C@H](NC(=O)[C@H](CCCCN)NC(=O)[C@H](CCCNC(=N)N)NC(=O)[C@H](CCC(=O)O)NC(=O)[C@H](CO)NC(=O)[C@H](CC(=O)O)NC3=O)C(=O)N2 [ProTx-II]
- AUC of gram thresholds (mean vehicle AUC subtracted), comparison between dose groups [2]: significantly different except between the 0.3 and 3 nmole doses
- paw pressure threshold vs vehicle-treated animals ([2]; sc): increased thresholds significantly
- paw pressure threshold, dose dependence ([2]; sc): dose-dependent increase
- tactile threshold vs vehicle injected animals [3]: significantly increased
- CFA-induced tactile allodynia [1]: profound anti-allodynic effect
- efficacy in tactile (Von Frey) pain assay [4]: not efficacious
- Est Cp [5]: BLOQ
- Behav Obs (mice): normal
- tolerability (mice): well tolerated
- motor impairment [6]: did not produce any obvious motor impairment
- tactile threshold [6]: significantly increased
- thermal threshold [6]: significantly increased
- efficacy in rodent models of acute and inflammatory pain [7]: non-efficacious
- level at time molar at 48 h (in vivo; 45.6 ug/day): 0.05 µM
- level at time molar at 120 h (in vivo; 45.6 ug/day): 0.055 µM
- level at time molar at 168 h (in vivo; 45.6 ug/day): 0.083 µM
- level at time molar at 72 h (in vivo; 228 ug/day): 0.224 µM

Compound: CC[C@H](C)[C@H](NC(=O)[C@H](CCC(N)=O)NC(=O)[C@H](Cc1ccc(O)cc1)NC(=O)[C@H](CCCCN)NC(=O)[C@@H]1CSSC[C@@H]2NC(=O)[C@H](CCC(N)=O)NC(=O)[C@H](CC(=O)O)NC(=O)[C@H](CC(N)=O)NC(=O)[C@H](CO)NC(=O)[C@@H]3CCCN3C(=O)[C@H](CC(N)=O)NC(=O)[C@@H]3CSSC[C@H](NC(=O)[C@H](C(C)C)NC(=O)[C@H](CC(C)C)NC(=O)[C@H](CCCCN)NC(=O)[C@H](CO)NC(=O)[C@H](CO)NC(=O)[C@H](CCCCN)NC(=O)[C@H](CSSC[C@H](NC(=O)[C@H](C)NC(=O)[C@@H]4CCCN4C(=O)CN)C(=O)N[C@@H](CC(C)C)C(=O)N[C@@H](CCC(=O)O)C(=O)N[C@@H]([C@@H](C)CC)C(=O)N[C@@H](Cc4ccccc4)C(=O)N[C@@H](CCCCN)C(=O)N[C@@H](C)C(=O)N3)NC2=O)C(=O)N[C@@H](CO)C(=O)N[C@@H](CCCNC(=N)N)C(=O)N[C@@H](CCCCN)C(=O)N[C@@H]([C@@H](C)O)C(=O)N[C@@H](CCCNC(=N)N)C(=O)N[C@@H](Cc2c[nH]c3ccccc23)C(=O)N1)C(=O)NCC(=O)N[C@@H](CCCCN)C(=O)O [NV1D82 | 243]
- pIC50 (Nav1.7): 7.40
- pIC50 (Nav1.2): 7.30

Compound: CC[C@H](C)[C@H](NC(=O)[C@H](CCC(N)=O)NC(=O)[C@H](Cc1ccc(O)cc1)NC(=O)[C@H](CCCCN)NC(=O)[C@@H]1CSSC[C@@H]2NC(=O)[C@H](CCC(N)=O)NC(=O)[C@H](CC(=O)O)NC(=O)[C@H](CC(N)=O)NC(=O)[C@H](CO)NC(=O)[C@@H]3CCCN3C(=O)[C@H](CC(N)=O)NC(=O)[C@@H]3CSSC[C@H](NC(=O)[C@H](C(C)C)NC(=O)[C@H](CC(C)C)NC(=O)[C@H](CCCCN)NC(=O)[C@H](CO)NC(=O)[C@H](CO)NC(=O)[C@H](CCCCN)NC(=O)[C@H](CSSC[C@H](NC(=O)[C@H](CCC(=O)O)NC(=O)[C@@H]4CCCN4C(=O)CN)C(=O)N[C@@H](CC(C)C)C(=O)N[C@@H](CCC(=O)O)C(=O)N[C@@H]([C@@H](C)CC)C(=O)N[C@@H](Cc4ccccc4)C(=O)N[C@@H](CCCCN)C(=O)N[C@@H](C)C(=O)N3)NC2=O)C(=O)N[C@@H](CO)C(=O)N[C@@H](CCCNC(=N)N)C(=O)N[C@@H](CCCCN)C(=O)N[C@@H]([C@@H](C)O)C(=O)N[C@@H](CCCNC(=N)N)C(=O)N[C@@H](Cc2c[nH]c3ccccc23)C(=O)N1)C(=O)NCC(=O)N[C@@H](CCCCN)C(=O)O [Recombinant Huwentoxin-IV]
- ratio of IC50 for Nav1.2 to IC50 for Nav1.7 (hNav1.7 channel): about 2.143
